The compounds below were run on P. falciparum 3D7 growth, pLDH absorbance (assay: P. falciparum 3D7 growth inhibition, dose response, strain 3D7 (AID 2305)).

Row | Structure (SMILES) | IC50 [nM]
1 | CC(C)C[C@@H](/C=N/N1CC(=O)NC1=O)NC(=O)[C@H](CC(C)C)NC(=O)c1ccc(OCCN2CCOCC2)cc1 | 270
2 | COC(=O)/C=C/C(=O)N[C@@H]1CC[C@@]2(O)[C@H]3Cc4ccc(O)c5c4[C@@]2(CCN3CC2CC2)[C@H]1O5 | 640
3 | COc1cc(C(=O)NCc2nn(CCN3CCC(N4CCCC4)CC3)cc2-c2ccc(Cl)c(Cl)c2)cc(OC)c1OC | 770
4 | CCCCNc1cc(NCCCC)c2c(n1)[nH]c1ccccc12 | 570
5 | COC(=O)c1cccc(CNCc2cccc(-c3ccc(-c4nc5c(C)cccc5[nH]4)s3)c2)c1 | 210
6 | COc1ccc(NC(=O)c2cccc(Br)c2)cc1N1CCN(CCCCCCCN2CCN(c3cc(NC(=O)c4cccc(Br)c4)ccc3OC)CC2)CC1 | 180
7 | FC(F)(F)c1ccc2nc(-c3ccc(-c4ccc(CNCc5ccccc5)cc4)cc3)[nH]c2c1 | 140
8 | NC(N)=NC(=O)Nc1ccc(Cl)c([N+](=O)[O-])c1 | 760
9 | CC(C)CNCc1ccc(-c2cccc(CN(C(=O)NCCc3ccccc3)C3CCN(Cc4ccccc4)CC3)c2)cc1 | 580
10 | O=C(/C=C/c1ccc(Cl)c(Cl)c1)NCCCCCCN1CCCN(C(=O)Nc2ccc(C(F)(F)F)cc2)CC1 | 580
11 | O=C(Nc1cccc(CN2CCN(C(=O)c3ccccc3)CC2)c1)c1ccco1 | 890
12 | FC(F)(F)COc1ccc(CCNCCCCNCCc2ccc(OCC(F)(F)F)c3ccccc23)c2ccccc12 | 650
13 | O=C(NCCCCCN1CCCN(C(=O)Nc2ccc(Cl)c(C(F)(F)F)c2)CC1)[C@@H]1C[C@H]1c1ccc(Cl)c(Cl)c1 | 850
14 | CCNc1cc(C(=O)N[C@@H](Cc2ccccc2)[C@H](O)CNC2(Cc3cccc(Cl)c3)CCC2)cc(N2CCCCS2(=O)=O)c1 | 1180
15 | COc1cc(-c2[nH]c(-c3ccc(OCCN(C)C)cc3)cc2-c2ccncc2)ccc1Cl | 1790
16 | CC(Cc1ccc(C(C)(C)C)cc1)NCC(O)c1ccccc1 (stereo not drawn) | 1810
17 | FC(F)(F)Oc1cccc(CNc2noc(-c3sccc3Br)n2)c1 | 880
18 | CC(=O)Oc1c(Br)c(C)nc(C)c1-c1ccc(Oc2ccc(OC(F)(F)F)cc2)cc1 | 130
19 | Cc1cccc(OC(C)C(=O)Nc2cc(C(F)(F)F)ccc2N2CCOCC2)c1 (stereo not drawn) | 240
20 | CCC(C)NC(=O)Nc1ccc(-c2cccc(-c3nc4c(C)cccc4[nH]3)c2)cc1 (stereo not drawn) | 190
21 | Cc1ccccc1C1CCN(C2CCC(NC(=O)c3ccc(-c4ccccn4)s3)CC2)CC1 (stereo not drawn) | 1180
22 | O=C(/C=C/c1ccc(Cl)c(Cl)c1)NCCCCCN1CCC(NC(=O)c2ccc(F)cc2)CC1 | 710
23 | O=C(Nc1cc(Cl)cc(Cl)c1)c1cc(Cl)c(=O)n(Cc2cccc(Cl)c2)c1 | 750
24 | Cc1ccc(NC(=O)c2ccc(-c3cc4cc(Cl)c(Cl)cc4[nH]3)cc2)cc1OCCN1CCCC1 | 990

Row | Structure (SMILES) | IC50 [nM]
25 | CCCN1CCc2c(sc3nc(SCC(=O)Nc4ccc(C)cc4)n(-c4ccc(C)cc4)c(=O)c23)C1 | 870
26 | Cc1cc(CN2CC[C@H](NC(=O)c3ccc(Cl)c(Cl)c3)C2)ccc1OC1CCN(Cc2ccccc2)CC1 | 910
27 | O=S(=O)(Nc1cccc(CCN2CCC(N3CCCCC3)CC2)c1)c1ccc(Oc2ccccc2)cc1 | 770
28 | COc1cccc(Nc2nc(C)cc(NC3CCCC3)n2)c1 | 1110
29 | O=C(NC1CCN(Cc2ccccc2)CC1)c1ccc(-c2nc3cc(F)c(F)cc3[nH]2)s1 | 830
30 | CO/C(=C\C=C\c1cc2cc(Cl)c(Cl)cc2[nH]1)C(=O)NCCCCN1CCN(c2ccccc2OC)CC1 | 510
31 | CCn1c(-c2nonc2N)nc2c(Cl)ncc(O[C@H](CCN)c3ccccc3F)c21 | 1460
32 | COc1ccc(CNCc2ccccc2)cc1-c1ccc(S(=O)(=O)NCCN2CCCC2)c(C)c1 | 860
33 | NC(=O)c1cccc(Nc2nccc(Nc3ccc(Oc4ccc5ccccc5c4)cc3)n2)c1 | 810
34 | CCCc1cc(Cc2cnc(N)nc2N)cc2c1OC(C)(C)C2 | 1080
35 | O=C(/C=C/c1ccc(Cl)c(Cl)c1)NC1CCC(CN2CCC(c3nc4ccccc4n3CCCO)CC2)CC1 (stereo not drawn) | 580
36 | CC(C)(C)c1ccc(NC(=O)c2ccc(CN3CCCN(Cc4cccc(O)c4)CC3)cc2)cc1 | 670
37 | COc1cc2c(cc1C(F)(F)F)N(C(=O)Nc1cc(F)c(F)c(-c3cccnc3)c1)CC2 | 630
38 | CC(CN(C)C)C(=O)Nc1cccc(-c2ccc(-c3nc4ccccc4[nH]3)cc2)c1 (stereo not drawn) | 710
39 | COc1ccc2nccc([C@@H](O)CN3CCC(NC/C=C/c4cccnc4)CC3)c2c1 | 620
40 | COc1ccc2nccc([C@@H](O)CN3CCC(NCc4cc5ccccc5[nH]c4=O)CC3)c2c1 | 180
41 | COc1cccc(C(=O)Nc2ccc(S(=O)(=O)c3cc4c(cc3OC)CCN(C)CC4)cc2)c1 | 1100
42 | Cn1c2c(c3ccccc31)CN(CCC1(c3ccc(Cl)c(Cl)c3)CN(C(=O)Cc3ccccc3)CCO1)CC2 (stereo not drawn) | 360
43 | COc1c(OC)c(OC)c2ccccc2c1CCNCCCCNCCc1c(OC)c(OC)c(OC)c2ccccc12 | 610
44 | CCOC(=O)NC1=NC(C)(C)N(OCc2cccc3c2ccc2ccccc23)C(NC(=O)OCC)=N1 | 170
45 | c1ccc2cc3c(Nc4ccc(N5CCCCCC5)cc4)ccnc3cc2c1 | 940
46 | CSCCCN1CCC(O)(c2ccc3oc(C(=O)Nc4ccc5sc(C)nc5c4)cc3c2)CC1 | 1070
47 | O=C(NCCCCN1CCC(c2ccc3c(c2OCCN2CCCC2)CCCC3)CC1)c1ccc(-c2ccc(C(F)(F)F)cc2)cc1 | 450
48 | COc1cccc(CN2CCN(C(c3ccccc3)c3ccccc3)CC2)c1O | 780

Row | Structure (SMILES) | IC50 [nM]
49 | COc1ccccc1CCNc1ncc(F)c(N[C@@H](Cc2ccccc2)C(=O)NCCc2ccccc2)n1 | 960
50 | CCN(CC)CCN(Cc1ccc(-c2ccc(C(F)(F)F)cc2)cc1)C(=O)c1ccc(-c2ccc(NC(=O)OC)cc2C)cc1 | 930
51 | CS(=O)(=O)Nc1cccc(-c2cnc3[nH]cc(-c4ccc(CCC(=O)O)cc4)c3c2)c1 | 1060
52 | CCCCc1cc(NCC)nc(Nc2cccc(OC)c2)n1 | 920
53 | CCC(N)(C#Cc1ccc(-c2c(C)[nH]c(C)c(Br)c2=O)cc1)CC | 40
54 | O=C(CCC1CCCC1)N(Cc1ccc(-c2ccc(CNCCc3ccccn3)cc2)cc1)CC1CCCCN1 (stereo not drawn) | 1150
55 | CN(C)S(=O)(=O)c1ccc(Nc2nc(NCCC3C=NC=N3)nc3cc[nH]c(=O)c23)cc1 (stereo not drawn) | 930
56 | O=C(/C=C/c1ccc(Cl)c(Cl)c1)NCCCCCN1CCN(C(=O)Nc2ccc(Cl)c(C(F)(F)F)c2)CC1 | 820
57 | COc1cc(C(=O)NC2CC(C)(C)N(C)C(C)(C)C2)ccc1-c1nc2cc(Cl)c(Cl)cc2[nH]1 | 790
58 | CN1CCc2cc(I)c(O)cc2C1Cc1ccccc1Cl (stereo not drawn) | 790
59 | O=C(NCCCNc1ccnc2cc(Cl)ccc12)c1ccccc1F | 320
60 | COc1ccc2nccc(N3CCC(SCCNS(=O)(=O)c4ccc5c(c4)NC(=O)CS5)C3)c2n1 (stereo not drawn) | 1580
61 | COc1cc(F)c2ncc(Cl)c(C(O)CN3CCC(NC(=O)c4ccc5c(n4)NC(=O)CO5)CC3)c2c1 (stereo not drawn) | 750
62 | CCN(CC)C(=O)C1CCCN(C(=O)Nc2cc(C(F)(F)F)cc(C(F)(F)F)c2)C1 (stereo not drawn) | 1000
63 | Cc1cc(Nc2ccc(C)c(C)c2)n2nc(C)nc2n1 | 600
64 | Cc1noc(-c2ccccc2)c1NC(=O)N1CCN(CCCCCCNC(=O)/C=C/c2ccc(Cl)c(Cl)c2)CC1 | 880
65 | CO/C=C(/C(=O)OC)c1ccccc1Oc1cc(Oc2ccccc2C#N)ncn1 | 40
66 | CN1CCCN(Cc2ccc(-c3cccc(NC(=O)c4ccc(F)cc4)c3)cc2)CC1 | 1090
67 | COc1ccc(-c2cc(-c3nc4ccc(C(=O)N5CCOCC5)cc4[nH]3)c(=O)n(C)c2)cc1OC | 860
68 | CCCCCCNC(=O)C1Cc2c([nH]c3cc(Cl)ccc23)C2(CCN(CCC)CC2)N1 (stereo not drawn) | 880
69 | CC1(C)[C@H]2CC[C@@H](CNc3nc(NCCc4cnc[nH]4)nc(Nc4ccc5c(c4)OCO5)n3)[C@@H]1C2 | 540
70 | CCc1ccc(CN2CCC(CNC(=O)c3cc(-c4ccccc4Cl)cs3)C2)cc1 (stereo not drawn) | 1430
71 | Cc1cc(NN=Cc2cccc(Cl)c2)c2cc(F)ccc2n1 | 760
72 | CO/C(=C\C=C\c1cc2cc(Cl)c(Cl)cc2[nH]1)C(=O)NCCCNC12CC3CC(CC(C3)C1)C2 | 730

Row | Structure (SMILES) | IC50 [nM]
73 | CCN(CC)CCN(Cc1ccc(-c2ccc(C(F)(F)F)cc2)cc1)C(=O)Cn1c(CCC2CCCCC2)nc(=O)c2ccccc21 | 1390
74 | CN1CCC(NCc2cccc(-c3nn(C)c4nc(NC5CCCC5)ncc34)c2)CC1 | 1020
75 | Cc1cc(N[C@@H](Cc2ccccc2)C(=O)Nc2ccccc2)nc(NCCc2ccc(F)cc2)n1 | 860
76 | O=C(CCc1cccc(O)c1)NCC(NCCCNc1cc(=O)c2ccccc2[nH]1)c1cc(Br)cc(Br)c1 (stereo not drawn) | 1170
77 | O=c1cc(NCCCNCc2cccc(Oc3ccccc3)c2)[nH]c2ccccc12 | 950
78 | Cc1ccc(OCC2CCN(c3ncc(C(=O)NCCCN4CCCC4=O)cc3Cl)CC2)cc1 | 1260
79 | CC(C)C(=O)n1ncc2c3c(N)nc(N)nc3ccc21 | 1030
80 | O=C(Nc1ccc(C(F)(F)F)cc1)c1ccc(S(=O)(=O)NCC2CCCN(CC3CCCCC3)C2)cc1 (stereo not drawn) | 150
81 | COc1ccc(C(=O)NCc2ccc(N)nc2C)cc1Nc1ncc(-c2cccc(N(C)C)c2)cn1 | 900
82 | CCNc1cc(C(=O)N[C@@H](Cc2ccccc2)[C@H](O)CNCCC(C)c2ccccc2)cc(N2CCCC2=O)c1 (stereo partly drawn) | 510
83 | CCN(CC)CCN(Cc1ccc(-c2ccc(Cl)s2)cc1)C(=O)Cn1c(CCc2cccc(F)c2F)nc(=O)c2ccccc21 | 1140
84 | Fc1cc(CN2CCCC2)ccc1OCCCN1CCN(c2cccc(Cl)c2Cl)CC1 | 1040
85 | Cc1ccc(Nc2nc3cc(Nc4ccnc(Nc5cccc(CS(C)(=O)=O)c5)n4)ccc3o2)cc1 | 920
86 | O=C(C1CCN(c2nnnn2-c2ccccc2)CC1)N1CCc2ccccc2C1 | 710
87 | COc1ccc(NC(=O)c2ccc3[nH]c(-c4ccc(Cl)cc4)cc3c2)cc1OCCN(C)C | 810
88 | O=C(Cc1cnc[nH]1)Nc1cccc(-c2ccc(-c3nc4ccc(C(F)(F)F)cc4[nH]3)cc2)c1 | 700
89 | CN1CCN(c2ccnc3ccc(NC(=O)Nc4cccc5ccccc45)cc23)CC1 | 490
90 | COc1cc(C(C)C)nc2ccc(NC(=O)c3ccc(C(=O)Nc4ccc5nc(C(C)C)cc(OC)c5c4)cc3)cc12 | 580
91 | O=C(c1ccc(Cl)cc1Cl)N1CCCC(C(F)(F)F)C1 (stereo not drawn) | 950
92 | COc1ccc(O)c(C(=O)NCCc2ccc(OC)c(-c3ccc(C(C)(C)C)cc3)c2)c1 | 1030
93 | Cc1cccc2[nH]c(-c3ccc(-c4cccc(NC(=O)C(C)CN(C)C)c4)s3)nc12 (stereo not drawn) | 720

Reference: PubChem BioAssay AID2305 (GlaxoSmithKline (GSK), 2010)
